Test results reported in patent US6288261A, “Inhibitors of matrix metalloproteinases” (Abbott Laboratories, priority 1999, dated 2001).

What follows are compounds tested against T1, recombinant truncated stromelysin (human sequence) (Homo sapiens, UniProt P08254) (assay: Determination of Stromelysin Inhibition). Conditions: recombinant truncated human stromelysin produced in E. coli.
T1 construct: made in house; host or cells: E. coli
Assay type: biochemical
Experimental: Determination of Stromelysin Inhibition
The efficacy of the compounds of this invention as matrix metalloproteinase inhibitors was determined by measuring the inhibition of stromelysin. The inhibition of stromelysin by the compounds of this invention was determined as follows: recombinant truncated stromelysin (human sequence) produced in E. coli was prepared by expression and purification of the protein as described by Ye et al, Biochemistry, 1992, 31, 11231-11235. The IC50 values were determined as described in Steiman et al, Bioorganic and Medicinal Chemistry Letters, (1998), 8, 2087-2092 (footnote 13).

T1 sequence (P08254 100-273 limits assumed): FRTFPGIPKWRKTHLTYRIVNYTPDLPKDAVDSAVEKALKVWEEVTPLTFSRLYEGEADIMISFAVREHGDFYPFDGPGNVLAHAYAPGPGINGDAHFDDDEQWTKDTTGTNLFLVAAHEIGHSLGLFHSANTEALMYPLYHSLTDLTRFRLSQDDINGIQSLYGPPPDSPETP

SMILES	IC50
O=C(NO)c1c(CCOc2ccc(-c3ccc(Cl)cc3)cc2)ccc2ccccc12 [Example 1, 2-[2-[(4'-chloro[1,1'-biphenvyl]-4-vl)oxy]eyl]-N-hydroxy-1-naphthalenecarboxamide]	640 nM
O=C(NO)c1c(OCCS(=O)(=O)c2ccc(-c3ccc(Cl)cc3)cc2)ccc2ccccc12 [Example 6, 2-[[2-(4'-chloro[1,1'-biphenyl]-4-yl)sulfonyl]ethoxy]-N-hydroxy-1-naphthalenecarboxamide]	670 nM
COc1ccc(-c2ccc(S(=O)(=O)CCOc3ccc4ccccc4c3C(=O)NO)cc2)cc1 [Example 7, N-hydroxy-2-[2-[(4'-methoxy[1,1'-biphenyl]-4-vl)sulfonyl]ethoxy]-1-naphthalenecarboxamide]	460 nM
O=C(NO)c1c(CCS(=O)(=O)c2ccc(-c3ccc(Cl)cc3)cc2)ccc2ccccc12 [Example 8, 2-[2-[(4'-chloro[1,1'-biphenyl]-4-yl)sulfonyl]ethyl]-N-hydroxy-1-naphthalenecarboxamide]	3700 nM

Continued, values first:

IC50	SMILES
690 nM	O=C(NO)c1c(CNS(=O)(=O)c2ccc(-c3ccc(OC(F)(F)F)cc3)cc2)ccc2ccccc12 [Example 9]
400 nM	COc1ccc(-c2ccc(S(=O)(=O)CCCc3ccc4ccccc4c3C(=O)NO)cc2)cc1 [Example 10, N-hydroxy-2-[3-[(4'-methoxy[1,1'-biphenyl]-4-yl)sulfonyl]propyl]-1-naphthalenecarboxamide]
1500 nM	COc1ccc(-c2ccc(C(=O)CCCc3ccc4ccccc4c3C(=O)NO)cc2)cc1 [Example 11, N-hydroxy-2-[4-(4'-methoxy[1,1'-biphenyl]-4-yl)-4-oxobutyl]-1-naphthalenecarboxamide]
450 nM	COc1ccc(-c2ccc(C(=O)CCc3ccc4ccccc4c3C(=O)NO)cc2)cc1 [Example 12, N-hydroxy-2-[3-(4'-methoxy[1,1'-biphenyl]-4-yl)-3-oxopropyl]-1-naphthalenecarboxamide]
62 nM	N#CCc1cccc(-c2ccc(S(=O)(=O)CCOc3ccc4ccccc4c3C(=O)NO)cc2)c1 [Example 13]
